Experimental data published in US20160038526A1, “TREATMENT OF PROSTATE CANCER” (THOMAS JEFFERSON UNIVERSITY, priority 2012, published 2016).

Test system: Stat5a/b
Assay: Clinical prostate cancers ex vivo in explant organ cultures: nuclear Stat5a/b immunohistochemistry
Type: cell-based, human
Details: 7 days, N6BAP 5, 10, 25, 50 and 100 μM; C5 100 m
Experimental: The specimens comprised de-identified excess tissue obtained after the completion of pathology diagnosis. A zero-sample prior to organ culture was formalin-fixed for each individual prostate cancer for the analysis of the nuclear Stat5a/b status. The prostate organ cultures were performed as described earlier (Ahonen et al., Endocrinology (2002), 143:228-238). Briefly, prostate cancer tissue was cut into approximately 1 mm^3 pieces in a plain culture medium and transferred onto lens papers lying on stainless steel grids in petri dishes. The medium was phenol-free medium 199 with Earle's salts (Sigma) containing dialyzed 5% fetal calf serum, G-penicillin (100 IU/ml), streptomycin sulfate ([…]), and glutamine (100 μg/ml). […] Tissue explants were cultured in a medium containing the N6BAP or control compound C5 at indicated concentrations (C5: […]; N6BAP: 5, 10, 25, 50 and 100 μM) 7 days, after which the explants were fixed in formalin and analyzed for Stat5a/b activation and viability of prostate cancer epithelial compartment. Viability of the epithelial cells in the prostate cancer explants at the end of the cultures were scored by counting the viable epithelial cells per explant.
Nuclear Stat5a/b indexes were determined by counting the Stat5-positive cells per 500 epithelial cells in the cultured explants in each treatment group.

With O=P(O)(O)OC[C@H]1O[C@@H](n2cnc3c(NCc4ccccc4)ncnc32)[C@H](O)[C@@H]1O [N6BAP, N^6-benzyladenosine-5′-monophosphate] the “nuclear Stat5 expression in explant organ cultures” value was “reduced the levels of nuclear Stat5 expression”.
